Several values for one entry are separate records, joined by “and”; a condition that tells them apart may be missing. Equal entries are not always repeated. *1 amine or outer side, *2 acyl side, *3 side chain or, on linkers, in order; H or OH if unused. Bridges are numbered along the chain shown (N, C = ends). Roman numbers before positions name the chains, in order. Where no end group is shown, it is not given here. [ ]: non-standard residue; d: D form. The star is where a group is joined. ξ: configuration not given here. DOTA = O=C(O)CN1CCN(CC(=O)O)CCN(CC(=O)*)CCN(CC(=O)O)CC1; 125I = iodine-125 label on tyrosine, [125I]*; X1 = O=C(CO/N=C/C(=O)[*:2])[*:1]; ξK = NCCCCC(N)C(=O)O; ξS = NC(CO)C(=O)O
Key:
[1] = tested on: Capan-2 cells
[2] = tested on: UM-UC-5 cells; experiment: In vitro binding on UM-UC-5 cells; type: cell-based, human; conditions: 60 min; percent applied dose/10^6 cells
Description: (§1) For binding studies, 2.5×10^5 to 4×10^5 cells were seeded in 6-well plates and cultivated for 48 hours. Cells were incubated for 60 min with 1 mL serum-free medium containing the ^125I-labeled peptide (see above). For competition experiments, cells were simultaneously exposed to unlabeled (10^-4 M to 10^-10 M) and ^125I-labeled peptides. After three washing steps with PBS (pH 7.4) the cells were lysed with 0.5 mL of 0.3 M NaOH. Experiments concerning the internalization, kinetics and efflux were additionally performed with ^177Lu-DOTA-SFITGv6. To evaluate kinetics and efflux HNO97 cells were incubated for different time intervals (10 min to 480 min) and 60 min, respectively, with ^177Lu-DOTA-SFITGv6 and lysed as described. To continue with the efflux experiment radioactive medium was replaced by non-radioactive medium and cells were incubated again for 60 to 240 min before measuring radioactivity of the cell lysates and the medium. For internalization experiments the cells were exposed to ^177Lu-DOTA-SFITGv6 for different time intervals (10 to 240 min) at 37° C. and 4° C. After three washing steps with PBS the cells were incubated with 1 mL of glycine-HCl 50 mmol/L in PBS (pH 2.8) for 10 min at RT to remove the surface bound activity. […] Radioactivity was determined in a gamma counter and calculated as percentage of the applied dose per 1×10^6 cells. […]

[3] = tested on: carcinoma cell lines; experiment: In vitro binding of radiolabeled peptides to several carcinoma cell lines; type: cell-based, human; conditions: for binding of ^125I-labeled peptide with unlabeled peptide as competitor: co-incubation with 10^-6 M unlabeled peptide, 60 min, all cell lines tested
Description: (§2) For binding studies, 2.5×10^5 to 4×10^5 cells were seeded in 6-well plates and cultivated for 48 hours. Cells were incubated for 60 min with 1 mL serum-free medium containing the ^125I-labeled peptide (see above). For competition experiments, cells were simultaneously exposed to unlabeled (10^-4 M to 10^-10 M) and ^125I-labeled peptides. After three washing steps with PBS (pH 7.4) the cells were lysed with 0.5 mL of 0.3 M NaOH. Experiments concerning the internalization, kinetics and efflux were additionally performed with ^177Lu-DOTA-SFITGv6. To evaluate kinetics and efflux HNO97 cells were incubated for different time intervals (10 min to 480 min) and 60 min, respectively, with ^177Lu-DOTA-SFITGv6 and lysed as described. To continue with the efflux experiment radioactive medium was replaced by non-radioactive medium and cells were incubated again for 60 to 240 min before measuring radioactivity of the cell lysates and the medium. For internalization experiments the cells were exposed to ^177Lu-DOTA-SFITGv6 for different time intervals (10 to 240 min) at 37° C. and 4° C. After three washing steps with PBS the cells were incubated with 1 mL of glycine-HCl 50 mmol/L in PBS (pH 2.8) for 10 min at RT to remove the surface bound activity. Then, cells were washed with 3 mL of ice-cold PBS and lysed as described. Radioactivity was determined in a gamma counter and calculated as percentage of the applied dose per 1×10^6 cells. Experiments were performed three times, and three repetitions per independent experiment were acquired.
(§3) For the assessment of the peptide binding capacity in vitro, 2.5-4×10^5 cells were seeded into 6-well plates and cultivated for 48 h. ^125I-labeled peptide resuspended in 1 mL serum-free medium was added and incubated for either 10 min or 60 min with or without different concentrations of unlabeled peptide (10^−4-10^−11 M). Afterwards, cell monolayers were washed three times with 1 mL phosphate-buffered saline (pH 7.4) to remove unbound peptide and the cells were harvested with 1.4 mL lysis buffer (0.3 M NaOH). To evaluate kinetic properties the cells were exposed to ^177Lu-DOTA-labeled peptides for 10, 30, 60, 120, and 240 min, respectively, and lysed as described. For the efflux experiments the cells were incubated with ^177Lu-DOTA-labeled peptides for 60 min. Thereafter, radioactive medium was replaced by non-radioactive medium and cell monolayers were incubated for additional 60, 120, and 240 min and afterwards lysed as described earlier. The internalization was assessed after exposure of the cells to ^177Lu-DOTA-labeled peptides for 10, 30, 60, 120, and 240 min at 37° C. Unspecifically bound peptide was removed from the surface by incubation with 1 M glycine-HCl solution (pH 2.2) for 10 min. The monolayer cell was rinsed with PBS and cells were lysed as described before. Radioactivity was determined in a y-counter and calculated as percentage of the applied dose per 1×10^6 cells. Experiments were performed three times, and three repetitions per independent experiment were acquired.

[4] = tested on: LUDLU-1 cells; experiment: In vitro binding on LUDLU-1 cells; type: cell-based, human; conditions: 60 min; percent applied dose/10^6 cells
Description: as §1

[5] = tested on: HNO258 cells; experiment: In vitro binding on HNO258 cells; type: cell-based, human; conditions: 60 min; percent applied dose/10^6 cells
Description: as §1

[6] = tested on: HNO399 cells; experiment: In vitro binding on HNO399 cells; type: cell-based, human; conditions: 60 min; percent applied dose/10^6 cells
Description: as §3, with “To evaluate kinetic properties the cells were exposed to ^177Lu-DOTA-labeled peptides for 10, 30, 60, 120, and 240 min, respectively, and lysed as described.” left out, “The internalization was assessed after exposure of the cells to ^177Lu-DOTA-labeled peptides for 10, 30, 60, 120, and 240 min at 37° C.” left out

[7] = tested on: HNO97 cells; experiment: In vitro binding, kinetics, internalization and efflux on HNO97 cells; type: cell-based, human
Description: as §2, §3

[8] = tested on: HNO210 cells; experiment: In vitro binding on HNO210 cells; type: cell-based, human; conditions: 60 min; percent applied dose/10^6 cells
Description: For binding studies, 2.5×10^5 to 4×10^5 cells were seeded in 6-well plates and cultivated for 48 hours. Cells were incubated for 60 min with 1 mL serum-free medium containing the ^125I-labeled peptide (see above). For competition experiments, cells were simultaneously exposed to unlabeled (10^-4 M to 10^-10 M) and ^125I-labeled peptides. After three washing steps with PBS (pH 7.4) the cells were lysed with 0.5 mL of 0.3 M NaOH. Experiments concerning the internalization, kinetics and efflux were additionally performed with ^177Lu-DOTA-SFITGv6. […] To continue with the efflux experiment radioactive medium was replaced by non-radioactive medium and cells were incubated again for 60 to 240 min before measuring radioactivity of the cell lysates and the medium. […] Radioactivity was determined in a gamma counter and calculated as percentage of the applied dose per 1×10^6 cells. […]
For the assessment of the peptide binding capacity in vitro, 2.5-4×10^5 cells were seeded into 6-well plates and cultivated for 48 h. ^125I-labeled peptide resuspended in 1 mL serum-free medium was added and incubated for either 10 min or 60 min with or without different concentrations of unlabeled peptide (10^−4-10^−11 M). […] The internalization was assessed after exposure of the cells to ^177Lu-DOTA-labeled peptides for 10, 30, 60, 120, and 240 min at 37° C. […]

[9] = Serum stability assay (radio-HPLC); type: in vitro ADME, human
Description: Five MBq of the purified ^131I-radiolabeled peptide was incubated in 300 μL human serum at 37° C. After different time intervals (15 min to 24 hours) 20 μL serum was precipitated with 40 μL acetonitrile. The stability of the labeled peptide in the supernatant was monitored by radio-HPLC at selected time points using a chromolith performance RP18ec column (3 mm×100 mm) equipped with a gamma detector (Packard COBRA™ Auto-Gamma, GMI). Separation condition was a gradient of 0% to 60% aqueous acetonitrile supplemented with 0.1% TFA over 10 min with a flow rate of 2 mL/min.

[10] = tested on: HT29 cells; experiment: In vitro binding on HT29 cells; type: cell-based, human; conditions: 60 min; percent applied dose/10^6 cells
Description: as §1

[11] = tested on: MCF-7 cells; experiment: In vitro binding on MCF-7 cells; type: cell-based, human; conditions: 60 min; percent applied dose/10^6 cells
Description: as §1

Substance | IC50 [1] | binding of ^125I-labeled peptide [2] | competition of binding by non-radioactively labeled counterpart ([3]; 10^−6 M competitor, all tested HNSCC cell lines) | competition of binding by unlabeled analog ([3]; 10^−6 M unlabeled analog) | average specific binding of ^125I-labeled peptide ([3]; HNO97, other HNSCC, lung, bladder and colon carcinoma cell lines) | binding of ^125I-labeled peptide with unlabeled peptide as competitor [3] | binding of ^125I-labeled peptide [4] | binding of ^125I-labeled peptide [5] | binding of ^125I-labeled peptide [6] | retention of radioactivity in cells (efflux experiment) ([7]; 240 min after termination of the uptake (1 h exposure), of originally accumulated activity) | maximal uptake of ^125I-labeled peptide (kinetics) ([7]; after exposure for 60 min) | internalization of ^125I-labeled peptide after decrease ([7]; decrease following the 60 min maximum) | maximal internalization of ^125I-labeled peptide ([7]; within 60 min) | binding of ^125I-labeled peptide [8] | proteolytic stability in human serum [9] | binding of ^125I-labeled peptide [10] | binding of ^125I-labeled peptide [11] | maximal uptake of ^125I-labeled peptide (kinetics) ([7]; after exposure for 120 min) | uptake of ^125I-labeled peptide after decrease (kinetics) ([7]; decrease following the 120 min maximum)
I: GRCTGRGDLGRLCYPD-NH2 / II: GRCTGRGDLGRLCYPD-NH2 / III: GRCTGRGDLGRLCYPD-NH2 / IV: {DOTA}-G[ξS]G[ξS][ξK]G[ξS]G[ξS][ξK]G[ξS]G[ξS][ξK]-NH2 (disulfide I:3-I:13, II:3-II:13, III:3-III:13; linker I:N-IV:15, II:N-IV:10, III:N-IV:5 via X1) [^125I-DOTA-SFLAP3-trimer] | 0.76 nM | – | – | – | – | – | – | – | – | – | – | – | – | – | – | – | – | – | –
^125I-SFITGv6: ^125I-labeled SFITGv6 (GRCTFRGDLMQLCY(125I)PD; disulfide 3-13) | – | 10.4% | almost completely competed | more than 90% | 7% | below 1 % of the applied dose | 4.3% | 3.5% | 9.8% | less than 5% | 37.3% | 12.6% | up to 24.1% | 7.1% and 10.5% | no degradation over a 24 hours | 2.8% | – | – | –
^125I-SFPF-10: ^125I-labeled peptide SFPF-10 (GRCTFRGDKMQLCY(125I)PD; disulfide 3-13 (inferred)) | – | 7.5% | – | – | – | below 1 % of the applied dose | – | 2.6% | – | – | – | – | – | – | – | – | 1.6% | 12.6% | 6.7%

— patent publication US20200131227A1, “POLYPEPTIDE WITH TUMOUR BINDING ACTIVITY” (RUPRECHT-KARLS-UNIVERSITÄT HEIDELBERG, priority 2017, published 2020)
